Consider eight molecules from ChEMBL document CHEMBL5260810, “Inhibition of bromodomain-containing protein 9 for the prevention of epigenetically-defined drug resistance” (Bioorg Med Chem Lett, 2017).

Activity calls are given as the source filed them. No cut-off for these calls is given here. Some results are limits rather than exact numbers.

Assay [1] concerns PC-9. Description: Cytotoxicity against human PC-9 cells assessed as decrease in cell number at 1 uM supplemented with fresh medium containing compound every 3 days for 9 days by Beckman Coulter counting method. The format is functional. Further details: scale not given: the % may be the effect or the level left. The note with it: time 3 day.
Assay [2] concerns the target T1, Bromodomain-containing protein 4 (Homo sapiens, UniProt O60885). Description: Displacement of biotinylated small-molecule ligand from recombinant His-tagged BRD4 bromodomain 1 (unknown origin) measured after 10 mins by TR-FRET assay.
Assay [3] deals with T1, Bromodomain-containing protein 4. The assay is described as follows: Displacement of biotinylated small-molecule ligand from recombinant His-tagged BRD4 bromodomain 2 (unknown origin) measured after 10 mins by TR-FRET assay.
Assay [4] has as its target Transcription initiation factor TFIID subunit 1 (Homo sapiens, UniProt P21675). Description: Displacement of biotinylated small-molecule ligand from recombinant His-tagged TAF1 bromodomain 2 (unknown origin) measured after 10 mins by TR-FRET assay.
For assay [5], the target named is Chromatin remodeling regulator CECR2 (Homo sapiens, UniProt Q9BXF3). Description: Displacement of biotinylated small-molecule ligand from recombinant His-tagged CECR2 (unknown origin) measured after 10 mins by TR-FRET assay.
Chain of Chromatin remodeling regulator CECR2 (Q9BXF3 whole entry): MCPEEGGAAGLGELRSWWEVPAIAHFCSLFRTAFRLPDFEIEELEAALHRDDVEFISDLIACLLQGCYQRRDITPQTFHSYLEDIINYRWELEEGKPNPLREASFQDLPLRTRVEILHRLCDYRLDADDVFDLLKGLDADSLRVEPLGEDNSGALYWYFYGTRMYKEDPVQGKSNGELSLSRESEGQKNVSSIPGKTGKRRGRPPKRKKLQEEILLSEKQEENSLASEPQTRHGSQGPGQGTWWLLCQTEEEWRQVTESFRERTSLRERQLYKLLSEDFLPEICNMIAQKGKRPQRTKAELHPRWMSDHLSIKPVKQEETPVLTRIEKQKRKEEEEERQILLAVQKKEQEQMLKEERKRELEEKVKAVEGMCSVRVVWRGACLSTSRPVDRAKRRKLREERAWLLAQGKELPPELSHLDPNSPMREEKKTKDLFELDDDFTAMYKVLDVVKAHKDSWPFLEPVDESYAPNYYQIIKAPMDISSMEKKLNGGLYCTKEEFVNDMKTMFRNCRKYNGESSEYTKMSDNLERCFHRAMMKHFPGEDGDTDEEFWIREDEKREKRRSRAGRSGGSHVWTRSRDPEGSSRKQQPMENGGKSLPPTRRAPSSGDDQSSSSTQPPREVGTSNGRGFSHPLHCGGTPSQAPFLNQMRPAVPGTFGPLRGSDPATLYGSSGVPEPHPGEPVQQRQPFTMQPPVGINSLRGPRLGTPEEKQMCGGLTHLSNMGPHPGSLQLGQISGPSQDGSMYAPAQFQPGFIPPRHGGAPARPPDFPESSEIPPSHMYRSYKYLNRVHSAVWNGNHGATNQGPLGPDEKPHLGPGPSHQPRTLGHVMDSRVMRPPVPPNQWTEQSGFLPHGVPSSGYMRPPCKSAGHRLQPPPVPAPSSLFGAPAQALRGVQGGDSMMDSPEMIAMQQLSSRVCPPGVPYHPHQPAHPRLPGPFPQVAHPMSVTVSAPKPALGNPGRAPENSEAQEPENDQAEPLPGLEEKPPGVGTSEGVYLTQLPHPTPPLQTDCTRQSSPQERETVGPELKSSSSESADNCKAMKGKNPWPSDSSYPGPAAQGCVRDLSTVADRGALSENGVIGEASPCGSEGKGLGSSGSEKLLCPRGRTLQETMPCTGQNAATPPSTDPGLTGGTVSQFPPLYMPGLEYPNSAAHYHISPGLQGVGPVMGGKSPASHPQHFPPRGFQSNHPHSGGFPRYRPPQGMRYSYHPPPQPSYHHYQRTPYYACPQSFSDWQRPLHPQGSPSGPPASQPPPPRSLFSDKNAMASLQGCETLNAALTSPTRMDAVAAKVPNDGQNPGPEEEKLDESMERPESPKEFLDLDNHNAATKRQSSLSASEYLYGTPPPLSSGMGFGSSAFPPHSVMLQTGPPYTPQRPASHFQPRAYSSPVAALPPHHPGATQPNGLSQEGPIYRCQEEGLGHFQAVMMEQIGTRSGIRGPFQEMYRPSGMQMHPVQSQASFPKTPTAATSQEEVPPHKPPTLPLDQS
Assay [6] relates to PC-9. Description: Cytotoxicity against human PC-9 cells assessed as decrease in cell number at 50 nM supplemented with fresh medium containing compound every 3 days for 9 days by Beckman Coulter counting method. The format is functional, cell-based. Conditions: time 3.0 day.
The test system of assay [7] is PC-9. The assay is described as follows: Cytotoxicity against human PC-9 cells assessed as decrease in drug tolerant population at 50 nM supplemented with fresh medium containing compound every 3 days for 9 days in presence of erlotinib by Beckman Coulter counting method. The class given is functional, cell-based. The note with it: time 9.0 day.

Chain of Transcription initiation factor TFIID subunit 1 (P21675 whole entry): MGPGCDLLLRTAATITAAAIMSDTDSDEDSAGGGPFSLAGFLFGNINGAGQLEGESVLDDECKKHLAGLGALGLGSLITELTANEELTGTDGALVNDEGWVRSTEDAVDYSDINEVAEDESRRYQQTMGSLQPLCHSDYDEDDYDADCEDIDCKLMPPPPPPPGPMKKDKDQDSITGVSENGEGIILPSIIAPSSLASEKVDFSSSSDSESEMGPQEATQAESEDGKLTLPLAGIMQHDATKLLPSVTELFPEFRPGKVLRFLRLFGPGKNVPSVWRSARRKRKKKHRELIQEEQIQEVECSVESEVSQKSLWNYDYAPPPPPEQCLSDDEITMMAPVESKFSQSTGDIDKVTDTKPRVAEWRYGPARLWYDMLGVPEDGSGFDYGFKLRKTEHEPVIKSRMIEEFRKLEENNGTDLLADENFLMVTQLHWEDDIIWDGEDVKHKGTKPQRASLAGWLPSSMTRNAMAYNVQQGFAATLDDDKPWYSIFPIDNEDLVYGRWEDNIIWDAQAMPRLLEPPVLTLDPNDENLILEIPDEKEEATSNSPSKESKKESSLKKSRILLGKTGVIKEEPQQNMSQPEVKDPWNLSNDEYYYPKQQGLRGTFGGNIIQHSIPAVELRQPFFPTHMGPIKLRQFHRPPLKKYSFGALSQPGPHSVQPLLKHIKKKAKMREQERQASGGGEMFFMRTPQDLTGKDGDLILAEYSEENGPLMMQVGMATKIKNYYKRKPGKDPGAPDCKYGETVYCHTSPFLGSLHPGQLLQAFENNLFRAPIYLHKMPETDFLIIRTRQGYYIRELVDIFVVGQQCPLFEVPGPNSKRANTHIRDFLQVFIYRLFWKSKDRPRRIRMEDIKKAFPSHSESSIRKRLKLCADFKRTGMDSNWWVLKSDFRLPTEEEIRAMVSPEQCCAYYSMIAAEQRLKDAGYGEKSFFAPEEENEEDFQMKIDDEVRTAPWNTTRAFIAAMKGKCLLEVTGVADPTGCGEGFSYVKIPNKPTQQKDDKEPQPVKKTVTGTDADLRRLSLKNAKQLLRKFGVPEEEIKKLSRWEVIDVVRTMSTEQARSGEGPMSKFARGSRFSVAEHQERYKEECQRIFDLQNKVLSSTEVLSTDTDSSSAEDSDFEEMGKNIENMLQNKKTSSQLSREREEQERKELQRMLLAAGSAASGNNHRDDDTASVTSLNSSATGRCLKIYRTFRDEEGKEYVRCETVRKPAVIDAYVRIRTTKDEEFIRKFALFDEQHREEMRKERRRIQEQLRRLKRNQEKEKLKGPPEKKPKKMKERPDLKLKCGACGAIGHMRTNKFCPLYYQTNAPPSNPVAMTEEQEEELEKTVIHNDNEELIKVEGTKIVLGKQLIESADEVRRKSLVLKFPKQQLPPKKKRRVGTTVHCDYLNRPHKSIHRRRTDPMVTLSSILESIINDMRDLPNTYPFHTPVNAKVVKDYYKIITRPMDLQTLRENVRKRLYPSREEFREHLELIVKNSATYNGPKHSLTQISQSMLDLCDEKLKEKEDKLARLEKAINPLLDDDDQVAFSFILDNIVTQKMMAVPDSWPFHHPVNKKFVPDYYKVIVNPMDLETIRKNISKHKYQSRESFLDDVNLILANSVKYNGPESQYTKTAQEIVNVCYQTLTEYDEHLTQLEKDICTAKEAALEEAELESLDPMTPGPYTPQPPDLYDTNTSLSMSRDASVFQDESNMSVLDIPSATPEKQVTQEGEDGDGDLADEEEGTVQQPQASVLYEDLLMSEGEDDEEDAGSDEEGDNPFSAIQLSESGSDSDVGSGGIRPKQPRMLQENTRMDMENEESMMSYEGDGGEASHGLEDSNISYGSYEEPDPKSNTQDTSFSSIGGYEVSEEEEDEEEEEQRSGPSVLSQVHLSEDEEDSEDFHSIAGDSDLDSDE

`C#Cc1cccc(Nc2ncnc3cc(OCCOC)c(OCCOC)cc23)c1` [ERLOTINIB]: the Activity in the assay on PC-9 [1] is greater than 98%.

For the molecule `C/C=C/Cn1cc(-c2ccc(C(=O)N3CCOCC3)c(Cl)c2)c2cc(C)[nH]c2c1=O`, the IC50 in assay [2] is 3.5 µM; in assay [3], 12.3 µM; in assay [4] it was 1.4 µM; in assay [5] it was 0.46 µM.

Turning to `C/C=C/Cn1cc(-c2ccc(C(C)(C)O)cc2)c2cc[nH]c2c1=O`, the 50% inhibitory concentration (IC50) is 3.3 µM in assay [2], 6.1 µM in assay [3], 5.5 µM in assay [4] and 4.7 µM in assay [5].

For the molecule `CC(/C=C/C(=O)NO)=C\[C@@H](C)C(=O)c1ccc(N(C)C)cc1`, the outcome in the assay on PC-9 [6] was inactive. Further, the outcome in the assay with PC-9 [7] was Active.

On to `C/C=C/Cn1cc(-c2ccc(C(=O)N3CCOCC3)c(C)c2)c2cc(C)[nH]c2c1=O`, for which the half-maximal inhibitory concentration (IC50) in assay [2] was 6 µM; in assay [3], 14.4 µM; in assay [4] it was 2.8 µM; in assay [5], 1 µM.

As to `C/C=C/Cn1cc(-c2ccc(C(=O)N3CCOCC3)cc2)c2cc(C)[nH]c2c1=O`, the IC50 in assay [2] was 1.6 µM; in assay [3], 6.7 µM; in assay [4], 0.75 µM; in assay [5], 0.81 µM.

`C/C=C/Cn1cc(-c2ccc(C(=O)N3CCOCC3)c(OC)c2)c2cc(C)[nH]c2c1=O`: the IC50 turned out to be 3.3 µM in assay [2], 17.4 µM in assay [3], 1.7 µM in assay [4] and 1 µM in assay [5].

On to `C/C=C/Cn1cc(-c2ccc(C(=O)N3CCOCC3)c(C#N)c2)c2cc(C)[nH]c2c1=O`, for which the IC50 in assay [2] is 4.2 µM; in assay [3] it was 13.5 µM; in assay [4] it was 0.52 µM; in assay [5], 0.37 µM.
